Test results published in patent US8183284B2, “Compositions for reducing the incidence of drug induced arrhythmia” (Warner Chilcott Company, LLC, priority 2005, dated 2012).

Assay: Clinical trials of oral azimilide: incidence of torsades de pointes (TdP)
Format: in vivo, patients
Procedure: Clinical trials are conducted where 5375 patients receive oral doses of azimilide. Patients are administered azimilide using a 3-day, twice daily loading regimen of 150-250 mg/day followed by a daily maintenance regimen (75-125 mg/day) of ½ of the loading dose, or are given daily azimilide (75, 100 or 125 mg/day) without a loading regimen. Overall about 75% of the patients are men and about 25% are women. Two cases of TdP are found in placebo-assigned patients and 54 azimilide-associated cases of TdP. Lack of aspirin use or lack of statin use is more frequent in azimilide patients with TdP. A total of 1191 (22%) patients (243 [16%] females and 948 [25%] males) are taking statins and aspirin as concomitant medication. Among the 54 patients (30 females and 24 males) who experienced TdP, 35% are on aspirin, 20% are on statins and only 11% are taking both a statin and aspirin as concomitant medication.

## CN1CCN(CCCCN2C(=O)CN(/N=C/c3ccc(-c4ccc(Cl)cc4)o3)C2=O)CC1 [azimilide]
5375 patients receiving oral azimilide 75-125 mg/day, with or without 3-day loading regimen of 150-250 mg/day
  azimilide-associated cases of TdP: 54 cases
Among the 54 patients (30 females, 24 males) who experienced TdP, concomitant aspirin
  share of patients who experienced TdP that are on aspirin: 35%
Among the 54 patients who experienced TdP, concomitant statins
  share of patients who experienced TdP that are on statins: 20%
Among the 54 patients who experienced TdP, overall 1191 (22%) of patients take statins and aspirin
  share of patients who experienced TdP that are taking both a statin and aspirin: 11%
